Source: paper PMC10472861, “Potent inhibition of human tyrosinase inhibitor by verproside from the whole plant of Pseudolysimachion rotundum var. subintegrum” (Journal of Enzyme Inhibition and Medicinal Chemistry, 2023)
Entries after “also recorded” stand apart in the source; their conditions may differ.

What was measured:
[1] = molecular target: T1, Mushroom tyrosinase (mTyr) (Agaricus bisporus, UniProt C7FF04); assay: Mushroom tyrosinase inhibition, L-tyrosine substrate (monophenolase); format: biochemical; conditions: for inhibition at 100 µM: read-out: Mushroom Tyrosinase L-Tyrosine 100 µM inhibition (%); for Type of inhibition (monophenolase): L-tyrosine, Lineweaver-Burk and Dixon plots
T1 construct: purchased Sigma Chemical Co. T3824-50KU
Target sequence in this assay (C7FF04 1-392): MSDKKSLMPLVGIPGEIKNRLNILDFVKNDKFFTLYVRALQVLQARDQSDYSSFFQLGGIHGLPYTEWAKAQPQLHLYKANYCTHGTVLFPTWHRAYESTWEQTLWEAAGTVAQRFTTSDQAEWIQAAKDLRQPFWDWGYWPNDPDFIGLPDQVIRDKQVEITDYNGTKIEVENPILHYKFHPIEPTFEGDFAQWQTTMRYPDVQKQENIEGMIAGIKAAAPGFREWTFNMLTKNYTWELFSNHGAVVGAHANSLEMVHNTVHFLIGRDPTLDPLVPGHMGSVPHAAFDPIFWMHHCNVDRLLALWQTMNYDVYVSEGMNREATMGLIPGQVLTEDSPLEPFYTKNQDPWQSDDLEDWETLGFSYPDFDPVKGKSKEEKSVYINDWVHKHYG

[2] = molecular target: T1, Mushroom tyrosinase (mTyr); assay: Mushroom tyrosinase inhibition, L-DOPA substrate (diphenolase); format: biochemical
Target sequence in this assay (C7FF04 1-392 limits assumed): as the sequence (C7FF04 1-392) above

mushroom tyrosinase [3] = molecular target: T2, mushroom tyrosinase (Agaricus bisporus, UniProt C7FF04); assay: Affinity-based ultrafiltration UPLC-QTOF-MS binding experiment; conditions: for after tyrosinase (area): UPLC-QTOF-MS peak area in 1000 ppm extract after incubation with mTyr; for Relative metabolite intensity upon treatment with mTyr: extract treated with mTyr, 15 min preincubation
T2 construct: purchased Sigma Chemical Co. T3824-50KU
T2 sequence (C7FF04 1-392): as above
Description: (§1) Affinity-based ultrafiltration was performed as previously described by Zuo et al. and Wang et al.[15]^,[19]^,[23]. First, […] of 0.25 M phosphate buffer (pH 6.8) with 10% glycerol was added to 13 μL of mushroom tyrosinase (144 U in the same phosphate buffer solution) and 100 μL of 1000 mg/mL extract (the test solution was consistently 3.3%). The final concentration of the extract was adjusted to 1000 ppm. The mixture was incubated for 15 or 50 min at 37 °C on a plate shaker. Then, the sample was centrifuged at 13,000 rpm for 20 min, and the supernatant was collected for analysis. The supernatant solution was filtered through a membrane (PTFE 0.2 μm, hydrophobic, Advantec, Japan), and 2 μL of each solution was injected for UPLC-PDA-QTOF-MS analysis.
(§2) The compounds from the P. rotundum var. subintegrum extract were analysed by UPLC-PDA-ESI-QTOF-MS. […] MS was performed in negative ion mode ([M − H]^−). N2 was used as the desolvation gas, the desolvation temperature was set to 350 °C at a flow rate of 400 L/h with a source temperature of 100 °C. The capillary and cone voltages were set to 2300 and 50 V, respectively. The data for each sample were collected with a scan time of 0.25 s and a 0.01 s interscan delay. Exact MS, MS/MS, and elemental analysis were confirmed using MassLynx software incorporated into the Waters instrument.

mushroom tyrosinase [4] = assay: as above; conditions: UPLC-QTOF-MS peak area in 1000 ppm extract, not exposed to enzyme
Description: as §1, §2

[5] = molecular target: T3, recombinant human tyrosinase (hTyr) (Homo sapiens, UniProt P14679); assay: Human tyrosinase inhibition, L-tyrosine substrate; format: biochemical
T3 construct: His-tag; purchased Enzo Life Sciences BML-SE535-0100
T3 sequence (P14679 19-529): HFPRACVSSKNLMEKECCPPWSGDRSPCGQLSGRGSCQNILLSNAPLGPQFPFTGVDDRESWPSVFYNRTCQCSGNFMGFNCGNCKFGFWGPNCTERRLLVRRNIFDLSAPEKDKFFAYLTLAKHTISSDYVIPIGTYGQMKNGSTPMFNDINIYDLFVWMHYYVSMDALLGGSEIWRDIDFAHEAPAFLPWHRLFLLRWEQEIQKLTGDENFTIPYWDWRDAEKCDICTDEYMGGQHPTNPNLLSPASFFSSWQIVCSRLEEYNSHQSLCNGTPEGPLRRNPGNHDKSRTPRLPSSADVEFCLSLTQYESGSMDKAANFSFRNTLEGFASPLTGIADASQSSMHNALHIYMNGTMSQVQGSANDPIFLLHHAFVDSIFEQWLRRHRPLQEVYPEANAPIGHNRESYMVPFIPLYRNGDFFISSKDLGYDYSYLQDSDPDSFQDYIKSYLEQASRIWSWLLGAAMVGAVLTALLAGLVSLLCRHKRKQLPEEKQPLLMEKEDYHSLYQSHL

[6] = molecular target: T3, recombinant human tyrosinase (hTyr); assay: Human tyrosinase inhibition, L-DOPA substrate; format: biochemical
Description: The enzymatic activities of tyrosinase were tested in vitro with the substrates and inhibitors known to interact with mushroom and mammalian tyrosinases (http://www.brenda-enzymes.info). The Michaelis-Menten constant (Km) of proteins was calculated from Lineweaver-Burk plots for 1/V0 versus 1/[substrate]. Mushroom tyrosinase (mTyr, EC 1.14.18.1, Sigma Chemical Co., T3824-50KU) was used as described previously[9] with some modifications with either 3,4-Dihydroxy-L-phenylalanine (L-DOPA, D9628-5G) or L-tyrosine (T3754-50G) as the substrate. In the spectrophotometric experiments, the initial velocity (vi) of enzymatic activity was monitored by observing dopachrome formation at 475 nm with a UV–vis spectrophotometer (SpectraMax M4, Molecular Devices, Sunnyvale, CA, USA) at 37 °C. The reaction was performed in a 96-well plate. All samples were first dissolved in dimethyl sulfoxide (DMSO) at a concentration of 2 mM. […] The activity of recombinant human tyrosinas (hTyr, His-tag, Enzo® Life Sciences, NY, USA, Cat. No. BML-SE535-0100) was determined using L-DOPA as a substrate, and the procedure involved a previously described absorption assay. […] The reaction was incubated for 10 min at 37 °C and was monitored at 475 nm for dopachrome formation on a SpectraMax M4 multimode detection platform (Molecular Devices). […]

mushroom tyrosinase [7] = molecular target: T2, mushroom tyrosinase; assay: Affinity-based time-dependent assay (slow-binding kinetics); format: biochemical; conditions: for Time dependence of inhibition: mushroom tyrosinase, L-tyrosine
Description: Time-dependent assays were carried out using 144 U of mushroom tyrosinase and L-tyrosine as the substrate in 0.25 M phosphate buffer (pH 6.8) at 30 °C. […] The data were analysed using a nonlinear regression program [SigmaPlot (SPCC Inc., Chicago, IL)] to give the individual parameters for each curve; vi (initial velocity), vs (steady–state velocity), kobs (apparent first–order rate constant for the transition from vi to vs), A (intensity), A0 (included to correct any possible deviation in the baseline), and Ki^app (apparent Ki) according to Equations. 2–4[26–28]: (2) A=vst + (vi–vs)[1 – exp (–kobst)]/kobs (3) v/v0= exp(−kobst) (4) kobs=k6+ [(k5 × [I])/(Ki^app + [I])]

B16F10 cells = assay: CCK-8 cell viability assay, B16F10; format: cell-based, murine; conditions: 48 h
Description: (§3) The B16F10 melanoma and Melan-A normal murine melanocyte cells were purchased from the American Type Culture Collection (ATCC), respectively. The B16F10 cells were cultured in complete Dulbecco's Modified Eagle's Medium (DMEM high glucose, Gibco) supplemented with 10% (v/v) Fetal Bovine Serum (FBS, Gibco, USA), 100 U/mL penicillin, 50 μg/ml streptomycin. The Melan-A cells were cultured in RPMI -1640 medium supplemented with 10% FBS, 2 mM L -glutamine, 200 nM 12 -o-tetradecanoyl phorbol -13-acetate (Sigma, USA), 100 U/mL penicillin, 50 μ g/ml streptomycin, and grown in a humidified atmosphere containing 5% CO 2 in ai r at 37°C.
(§4) The cells were seeded in 96 -well plates at a density of 5 × 10^3 cells/well in cultured medium. The cells were treated with the corresponding concentrations of verproside for 48 h. Cell viability was measured in triplicate using a Cell Counting Kit -8 (CCK -8; Dojindo Molecular Technologies, Rockville, MD, USA) . Absorbance was determined using an Epoch microplate reader (BioTek Instruments, Winooski, VT, USA, #CK04) and calculated as a relative percentage (%) of the control […]
(§5) Figure S4 . The cell viability by verproside in B16F10 and Melna -A cells. (A) CCK -8 assays in B16F10 cells. (B) CCK -8 assays in Melna -A cells.
(§6) (1 picture or pasted object on this page, not shown here)

Melan-A cells = assay: CCK-8 cell viability assay, Melan-A; format: cell-based, murine; conditions: 48 h
Description: as §3, §4, §5, §6

[8] = mTyr, L-tyrosine substrate (monophenolase), read-out: Mushroom Tyrosinase L-Tyrosine IC50
[9] = mTyr, L-DOPA substrate, read-out: Mushroom Tyrosinase L-DOPA IC50

SMILES | IC50 [1, 8] [µM] | inhibition at 100 µM [1] [%] | IC50 [2, 9] [µM] | after tyrosinase (area) (mushroom tyrosinase [3]) | Control (area) (mushroom tyrosinase [4]) | Relative metabolite intensity upon treatment with mTyr (mushroom tyrosinase [3]) | other results
COc1ccc(C(=O)OC2C3C=COC(OC4OC(CO)C(O)C(O)C4O)C3C3(CO)OC23)cc1OC (centres unmarked) [6-O-Veratroyl catalpol (9), 6-O-Veratroyl catalpol] | > 200 | 6.1 | > 200 | 11932 | 15756 |  | 
O=C(O[C@H]1[C@@H]2C=CO[C@@H](O[C@@H]3O[C@H](CO)[C@@H](O)[C@H](O)[C@H]3O)[C@@H]2[C@@]2(CO)O[C@@H]12)c1ccc(O)cc1 [Catalposide (3), Catalposide] | > 200 | 9.9 | > 200 | 21250 | 26121 |  | 
COc1cc(C(=O)O[C@H]2[C@@H]3C=CO[C@@H](O[C@@H]4O[C@H](CO)[C@@H](O)[C@H](O)[C@H]4O)[C@@H]3[C@@]3(CO)O[C@@H]23)ccc1O [Picroside II (5), Picroside II] |  | 5.3 |  | 12194 | 17798 |  | IC50 [1]: > 200 µM; IC50 [2]: > 200 µM
O=C(OC1C2C=COC(OC3OC(CO)C(O)C(O)C3O)C2C(O)(CO)C1Cl)c1ccc(O)c(O)c1 (centres unmarked) [Longifolioside A (2), Longifolioside A] | 193 ± 10.5 | 36 | > 200 | 3852 | 10677 | significantly reduced | 
COc1ccc(C(=O)OC2C3C=COC(OC4OC(CO)C(O)C(O)C4O)C3C3(CO)OC23)cc1O (centres unmarked) [Isovanillyl catapol (7), Isovanillyl catapol] | > 200 | 10.1 | > 200 | 8093 | 12844 |  | 
O=C(/C=C/c1ccc(O)c(O)c1)O[C@@H]1C2C=CO[C@H](O[C@@H]3O[C@H](CO)[C@@H](O)[C@H](O)[C@H]3O)C2[C@]2(CO)O[C@H]12 (some centres unmarked) [Verminoside (4), Verminoside] | > 200 | 8.9 | > 200 | 2886 | 16481 | significantly reduced | 
COc1ccc(/C=C/C(=O)O[C@H]2[C@@H]3C=CO[C@@H](O[C@@H]4O[C@H](CO)[C@@H](O)[C@H](O)[C@H]4O)[C@@H]3[C@@]3(CO)O[C@@H]23)cc1O [Minecoside (8), Minecoside] | 132 ± 8.3 | 41.7 | > 200 | 465 | 976 |  | 
O=C(OC1C2CC3OCC(O)(C1Cl)C2C(OC1OC(CO)C(O)C(O)C1O)O3)c1ccc(O)c(O)c1 (centres unmarked) [Piscroside C (6), Piscroside C] | > 200 | 6.7 | > 200 | 22171 | 44999 |  | 
O=C(OC1C2C=COC(OC3OC(CO)C(O)C(O)C3O)C2C2(CO)OC12)c1ccc(O)c(O)c1 (centres unmarked) [Verproside (1), Verproside] | 31.2 ± 2.1 | 98.4 | 177 ± 33.1 | 61907 | 112306 | significantly reduced | Ki ([1]; mTyr, L-tyrosine (monophenolase), read-out: Ki (inhibition constant)): 5.1 µM; Type of inhibition (monophenolase) ([1]; mTyr): competitive inhibition; Type of inhibition (monophenolase) ([1]; mTyr, listed as verproside): competitive; Type of inhibition (diphenolase) ([2]; mTyr diphenolase activity): competitive inhibition; IC50 ([5]; hTyr, L-tyrosine substrate): 197 µM; Efficacy relative to positive control kojic acid in hTyr ([5]; ratio of hTyr IC50 values, kojic acid / verproside): 5.6 fold; IC50 [6]: 843 µM; k5 (mushroom tyrosinase [7]; fit of kobs to Equation (4)): 0.04496 s⁻¹; k6 (mushroom tyrosinase [7]; fit of kobs to Equation (4)): 0.00001103 s⁻¹; Ki (mushroom tyrosinase [7]; fit of kobs to Equation (4), read-out: Ki^app (apparent Ki)): 2400 µM; Time dependence of inhibition (mushroom tyrosinase [7]; listed as verproside): time-dependent; also recorded: slow-binding; Time dependence of inhibition (mushroom tyrosinase [7]; listed as verproside (1)): time-dependent inhibition; Cell viability (B16F10 cells): did not significantly affect cell viability; Cell viability (Melan-A cells): did not significantly affect cell viability
